Measured values published in patent US20070259926A1, “mGluR5 modulators III” (AstraZeneca AB, priority 2006, published 2007).

Columns and labels:
human mGluR5d = biological target: T1, human mGluR5d (Homo sapiens, UniProt P41594); assay: FLIPR assay: functional assessment of mGluR5 antagonism (intracellular calcium mobilization); format: cell-based; conditions: cells expressing human mGluR5d; read-out: FLIPR hmGluR5d
T1 construct: expressed in transfected cells
Text: The properties of the compounds of the invention can be analyzed using standard assays for pharmacological activity. Examples of glutamate receptor assays are well known in the art as described in for example Aramori et al., Neuron 8:757 (1992), Tanabe et al., Neuron 8:169 (1992), Miller et al., J. Neuroscience 15:6103 (1995), Balazs, et al., J. Neurochemistry 69:151 (1997). The methodology described in these publications is incorporated herein by reference. Conveniently, the compounds of the invention can be studied by means of an assay (FLIPR) that measures the mobilization of intracellular calcium, [Ca^2+]i in cells expressing mGluR5 or another assay (IP3) that measures inositol phosphate turnover.
Cells expressing human mGluR5d as described in WO97/05252 are seeded at a density of 100,000 cells per well on collagen coated clear bottom 96-well plates with black sides and experiments are done 24 h following seeding. […] The fluorescence signal is sampled 50 times at 1 second intervals followed by 3 samples at 5 second intervals immediately after each of the two additions. Responses are measured as the difference between the peak height of the response to agonist, less the background fluorescence within the sample period. […]

[1] = Determination of brain to plasma ratio in rat; format: in vivo; conditions: brain and plasma, female Sprague Dawley rats, read-out: Brain/Plasma Ratio of compound in Rat
Experimental: Brain to plasma ratios are estimated in female Sprague Dawley rats. The compound is dissolved in water or another appropriate vehicle. For determination of brain to plasma ratio the compound is administrated as a subcutaneous, or an intravenous bolus injection, or an intravenous infusion, or an oral administration. At a predetermined time point after the administration a blood sample is taken with cardiac puncture. The rat is terminated by cutting the heart open, and the brain is immediately retained. The blood samples are collected in heparinized tubes and centrifuged within 30 minutes, in order to separate the plasma from the blood cells. The plasma is transferred to 96-well plates and stored at −20° C. until analysis. The brains are divided in half, and each half is placed in a pre-tarred tube and stored at −20° C. until analysis. Prior to the analysis, the brain samples are thawed and 3 ml/g brain tissue of distilled water is added to the tubes. The brain samples are sonicated in an ice bath until the samples are homogenized. Both brain and plasma samples are precipitated with acetonitrile. After centrifugation, the supernatant is diluted with 0.2% formic acid. […] After reconstitution of the residuals the samples are ready for injection onto the HPLC column.

T1 sequence (P41594 21-942 isoform P41594-3 limits assumed): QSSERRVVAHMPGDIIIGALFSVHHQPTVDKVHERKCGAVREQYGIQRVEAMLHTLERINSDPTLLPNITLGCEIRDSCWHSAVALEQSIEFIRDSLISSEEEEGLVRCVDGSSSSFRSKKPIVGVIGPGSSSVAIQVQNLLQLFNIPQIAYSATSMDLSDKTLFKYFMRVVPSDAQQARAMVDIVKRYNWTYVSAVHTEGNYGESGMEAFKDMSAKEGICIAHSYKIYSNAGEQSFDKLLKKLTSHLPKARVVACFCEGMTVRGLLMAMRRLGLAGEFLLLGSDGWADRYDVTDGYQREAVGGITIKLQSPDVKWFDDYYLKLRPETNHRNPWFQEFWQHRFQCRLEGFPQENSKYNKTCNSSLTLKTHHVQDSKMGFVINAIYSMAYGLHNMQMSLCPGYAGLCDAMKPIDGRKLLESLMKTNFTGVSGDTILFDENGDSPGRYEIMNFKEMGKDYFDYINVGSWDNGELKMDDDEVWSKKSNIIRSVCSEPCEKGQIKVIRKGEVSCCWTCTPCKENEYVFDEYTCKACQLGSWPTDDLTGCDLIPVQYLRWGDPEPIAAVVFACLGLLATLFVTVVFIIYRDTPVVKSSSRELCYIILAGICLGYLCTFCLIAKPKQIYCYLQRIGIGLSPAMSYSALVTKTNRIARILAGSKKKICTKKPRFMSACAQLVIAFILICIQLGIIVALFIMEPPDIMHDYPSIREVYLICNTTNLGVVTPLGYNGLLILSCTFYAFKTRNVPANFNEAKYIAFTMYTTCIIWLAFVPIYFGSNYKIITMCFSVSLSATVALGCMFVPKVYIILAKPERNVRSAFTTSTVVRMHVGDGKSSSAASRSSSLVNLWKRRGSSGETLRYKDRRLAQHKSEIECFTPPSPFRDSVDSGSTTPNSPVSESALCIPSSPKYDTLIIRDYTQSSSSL

IC50 (human mGluR5d) | Kp [1] | Structure (SMILES)
0.011 µM | 0.27 | Cc1cc(-c2nnc(N3CCC[C@@H]3c3nnn(-c4cccc(Cl)c4)n3)n2C)ccn1 [Example 15.1, 4-(5-{(R)-2-[2-(3-Chloro-phenyl)-2H-tetrazol-5-yl]-pyrrolidin-1-yl}-4-methyl-4H-[1,2,4]triazol-3-yl)-2-methyl-pyridine]
0.05 µM | 0.13 | COc1cc(-c2nnc(N3CCC[C@@H]3c3nnn(-c4cccc(C#N)c4)n3)n2C)ccn1 [Example 15.3, 3-(5-{(R)-1-[5-(2-Methoxy-pyridin-4-yl)-4-methyl-4H-[1,2,4]triazol-3-yl]-pyrrolidin-2-yl}-tetrazol-2-yl)-benzonitrile]
